Columns and labels:
Assay type in all cases: in vivo
[1] = test system: galium (catchweed bedstraw, Galium aparine); experiment: Test B pre-/postemergence plant response; details: Preemergence
In short: (§1)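 Greenhouse herbicide screen. Pre- and postemergence (1- to 4-leaf) spray of compound in solvent/surfactant mixture; loam–sand soil for pre, peat/vermiculite medium for post. Visual control rating 0–100 at 13 to 15 days after treatment.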

[2] = test system: nightshade (eastern black nightshade, Solanum ptycanthum); experiment: Test B pre-/postemergence plant response; details: Preemergence
In short: as §1

[3] = test system: sunflower (common oilseed sunflower, Helianthus annuus); experiment: Test B pre-/postemergence plant response; details: Preemergence
In short: as §1

[4] = test system: goosegrass (Eleusine indica); experiment: Test B pre-/postemergence plant response; details: Preemergence, 62 g ai/ha; scale 0 to 100 (0 no effect, 100 complete control)
[5] = test system: Italian ryegrass (Lolium multiflorum); experiment: Test D pre-/postemergence plant response
In short: (§2)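 Pre + post applications; loam/sand soil; solvent + surfactant vehicle; post-em plants 1- to 4-leaf (2–18 cm); greenhouse 14–21 d; visual score 0 (none) to 100 (full control) vs untreated.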

[6] = test system: bermudagrass (Cynodon dactylon); experiment: Test D pre-/postemergence plant response
In short: as §2

[7] = test system: black mustard (Brassica nigra); experiment: Test D pre-/postemergence plant response
In short: as §2

[8] = test system: dallisgrass (Paspalum dilatatum); experiment: Test D pre-/postemergence plant response
In short: as §2

[9] = test system: field bindweed (Convolvulus arvensis); experiment: Test D pre-/postemergence plant response
In short: as §2

[10] = test system: goosegrass (Eleusine indica); experiment: Test D pre-/postemergence plant response
In short: as §2

[11] = test system: prickly sida (Sida spinosa); experiment: Test D pre-/postemergence plant response
In short: as §2

[12] = test system: sandbur (southern sandbur, Cenchrus echinatus); experiment: Test D pre-/postemergence plant response
In short: as §2

[13] = test system: sowthistle (common sowthistle, Sonchus oleraceous); experiment: Test D pre-/postemergence plant response
In short: as §2

[14] = 31 g ai/ha, scale 0 to 100 (0 no effect, 100 complete control)
[15] = 62 g ai/ha, scale 0 to 100 (0 no effect, 100 complete control)
[16] = 125 g ai/ha, scale 0 to 100, 0 no effect, 100 complete control
[17] = Postemergence, 31 g ai/ha, scale 0 to 100
[18] = Postemergence, 62 g ai/ha, scale 0 to 100 (0 no effect, 100 complete control)
[19] = Postemergence, 125 g ai/ha, scale 0 to 100 (0 no effect, 100 complete control)
[20] = Postemergence, 16 g ai/ha, scale 0 to 100
[21] = Preemergence, 16 g ai/ha, scale 0 to 100, 0 no effect, 100 complete control
[22] = Preemergence, 31 g ai/ha, scale 0 to 100 (0 no effect, 100 complete control)
[23] = Preemergence, 125 g ai/ha, scale 0 to 100
[24] = Postemergence, 31 g ai/ha, scale 0 to 100 (0 no effect, 100 complete control)
[25] = Preemergence, 62 g ai/ha, scale 0 to 100

Cc1ccc(F)cc1-n1c(-c2ccccc2)ncc(C(=O)C2=C(O)CCCC2=O)c1=O [Compound 44]
Plant response rating, Galium ([1]; 250 g ai/ha, 0 to 100 scale): 98
Plant response rating, Galium [1, 14]: 0
Plant response rating, Galium [1, 15]: 65
Galium plant response rating ([1]; 125 g ai/ha, 0 to 100 scale): 65
Plant response rating, Nightshade ([2]; 250 g ai/ha, 0 to 100 scale): 100
Plant response rating, Nightshade [2, 14]: 95
Plant response rating, Nightshade [2, 15]: 98
Nightshade plant response rating ([2]; 125 g ai/ha, 0 to 100 scale): 100
Plant response rating, Sunflower ([3]; 250 g ai/ha, 0 to 100 scale): 80
Plant response rating, Sunflower [3, 14]: 10
Sunflower plant response rating ([3]; 125 g ai/ha, 0 to 100 scale): 75
Plant response rating, Goosegrass [4]: 98

O=C1CCCC(O)=C1C(=O)c1cnc(-c2ccccc2)n(CC2CCCO2)c1=O (centres unmarked) [Compound 59]
Plant response rating, Galium ([1]; 250 g ai/ha, 0 to 100 scale): 98
Plant response rating, Galium [1, 14]: 0
Plant response rating, Galium [1, 15]: 90
Plant response rating, Galium [1, 16]: 95
Plant response rating, Nightshade [2, 14]: 95
Plant response rating, Nightshade [2, 15]: 98
Plant response rating, Nightshade [2, 16]: 100
Plant response rating, Sunflower [3, 14]: 55
Plant response rating, Sunflower [3, 15]: 65
Plant response rating, Sunflower [3, 16]: 70
Plant response rating, Ryegrass, Italian [5, 17]: 0
Plant response rating, Ryegrass, Italian [5, 18]: 5
Plant response rating, Ryegrass, Italian [5, 19]: 5
Plant response rating, Ryegrass, Italian [5, 20]: 0
Plant response rating, Ryegrass, Italian [5, 21]: 0
Plant response rating, Ryegrass, Italian [5, 22]: 0
Plant response rating, Ryegrass, Italian [5, 23]: 20
Plant response rating, Bermudagrass [6, 24]: 40
Plant response rating, Bermudagrass [6, 18]: 70
Plant response rating, Bermudagrass [6, 19]: 80
Plant response rating, Bermudagrass [6, 20]: 35
Plant response rating, Bermudagrass [6, 21]: 0
Plant response rating, Bermudagrass [6, 22]: 0
Plant response rating, Bermudagrass [6, 25]: 40
Plant response rating, Bermudagrass [6, 23]: 90
Plant response rating, Black Mustard [7, 24]: 40
Plant response rating, Black Mustard [7, 18]: 65
Plant response rating, Black Mustard [7, 19]: 98
Plant response rating, Black Mustard [7, 20]: 10
Plant response rating, Black Mustard [7, 21]: 20
Plant response rating, Black Mustard [7, 22]: 40
Plant response rating, Black Mustard [7, 25]: 60
Plant response rating, Black Mustard [7, 23]: 100
Plant response rating, Dallisgrass [8, 17]: 10
Plant response rating, Dallisgrass [8, 18]: 20
Plant response rating, Dallisgrass [8, 19]: 50
Plant response rating, Dallisgrass [8, 20]: 10
Plant response rating, Dallisgrass [8, 21]: 0
Plant response rating, Dallisgrass [8, 22]: 0
Plant response rating, Dallisgrass [8, 25]: 65
Plant response rating, Dallisgrass [8, 23]: 75
Plant response rating, Field Bindweed [9, 17]: 5
Plant response rating, Field Bindweed [9, 18]: 30
Plant response rating, Field Bindweed [9, 19]: 60
Plant response rating, Field Bindweed [9, 20]: 5
Plant response rating, Field Bindweed [9, 21]: 0
Plant response rating, Field Bindweed [9, 22]: 0
Plant response rating, Field Bindweed [9, 25]: 20
Plant response rating, Field Bindweed [9, 23]: 60
Plant response rating, Goosegrass [10, 17]: 20
Plant response rating, Goosegrass [10, 18]: 50
Plant response rating, Goosegrass [10, 19]: 65
Plant response rating, Goosegrass [10, 20]: 20
Plant response rating, Goosegrass [10, 21]: 0
Plant response rating, Goosegrass [10, 22]: 5
Plant response rating, Goosegrass [10, 25]: 20
Plant response rating, Goosegrass [10, 23]: 80
Plant response rating, Prickly Sida [11, 17]: 40
Plant response rating, Prickly Sida [11, 18]: 70
Plant response rating, Prickly Sida [11, 19]: 70
Plant response rating, Prickly Sida [11, 20]: 40
Plant response rating, Prickly Sida [11, 21]: 0
Plant response rating, Prickly Sida [11, 22]: 0
Plant response rating, Prickly Sida [11, 25]: 5
Plant response rating, Prickly Sida [11, 23]: 65
Plant response rating, Sandbur [12, 17]: 5
Plant response rating, Sandbur [12, 18]: 5
Plant response rating, Sandbur [12, 19]: 25
Plant response rating, Sandbur [12, 20]: 5
Plant response rating, Sandbur [12, 21]: 0
Plant response rating, Sandbur [12, 22]: 0
Plant response rating, Sandbur [12, 23]: 0
Plant response rating, Sowthistle [13, 17]: 100
Plant response rating, Sowthistle [13, 18]: 100
Plant response rating, Sowthistle [13, 19]: 100
Plant response rating, Sowthistle [13, 20]: 70
Plant response rating, Sowthistle [13, 21]: 0
Plant response rating, Sowthistle [13, 22]: 95
Plant response rating, Sowthistle [13, 23]: 100

Cc1ccccc1-n1c(-c2cccc(Cl)c2)ncc(C(=O)C2=C(O)CCCC2=O)c1=O [Compound 36]
Plant response rating, Galium ([1]; 250 g ai/ha, 0 to 100 scale): 95
Plant response rating, Galium [1, 14]: 10
Plant response rating, Galium [1, 15]: 80
Galium plant response rating ([1]; 125 g ai/ha, 0 to 100 scale): 80
Plant response rating, Nightshade ([2]; 250 g ai/ha, 0 to 100 scale): 98
Plant response rating, Nightshade [2, 14]: 80
Plant response rating, Nightshade [2, 15]: 95
Nightshade plant response rating ([2]; 125 g ai/ha, 0 to 100 scale): 95
Plant response rating, Sunflower ([3]; 250 g ai/ha, 0 to 100 scale): 85
Plant response rating, Sunflower [3, 14]: 0
Sunflower plant response rating ([3]; 125 g ai/ha, 0 to 100 scale): 55
Plant response rating, Goosegrass [4]: 90

3-cyclohexyl-5-[(2-hydroxy-6-oxo-1-cyclohexen-1-yl)carbonyl]-2-phenyl-4(3H)-pyrimidinone [Compound 128]
Plant response rating, Galium ([1]; 250 g ai/ha, 0 to 100 scale): 75
Plant response rating, Galium [1, 14]: 5
Plant response rating, Galium [1, 15]: 50
Galium plant response rating ([1]; 125 g ai/ha, 0 to 100 scale): 50
Plant response rating, Nightshade ([2]; 250 g ai/ha, 0 to 100 scale): 100
Plant response rating, Nightshade [2, 14]: 85
Plant response rating, Nightshade [2, 15]: 100
Nightshade plant response rating ([2]; 125 g ai/ha, 0 to 100 scale): 100
Plant response rating, Sunflower ([3]; 250 g ai/ha, 0 to 100 scale): 98
Plant response rating, Sunflower [3, 14]: 75
Plant response rating, Sunflower [3, 15]: 85
Sunflower plant response rating ([3]; 125 g ai/ha, 0 to 100 scale): 95
Plant response rating, Goosegrass [4]: 95

Cc1c(Cl)cccc1-n1c(-c2ccccc2)ncc(C(=O)C2=C(O)CCCC2=O)c1=O [Compound 40]
Plant response rating, Galium ([1]; 250 g ai/ha, 0 to 100 scale): 90
Plant response rating, Galium [1, 14]: 50
Plant response rating, Galium [1, 15]: 70
Galium plant response rating ([1]; 125 g ai/ha, 0 to 100 scale): 85
Plant response rating, Nightshade ([2]; 250 g ai/ha, 0 to 100 scale): 100
Plant response rating, Nightshade [2, 14]: 65
Plant response rating, Nightshade [2, 15]: 98
Nightshade plant response rating ([2]; 125 g ai/ha, 0 to 100 scale): 98
Plant response rating, Sunflower ([3]; 250 g ai/ha, 0 to 100 scale): 80
Plant response rating, Sunflower [3, 14]: 20
Sunflower plant response rating ([3]; 125 g ai/ha, 0 to 100 scale): 75
Plant response rating, Goosegrass [4]: 98

— patent US8952024B2, “Herbicidal pyrimidone derivatives” (E I du Pont de Nemours and Company, priority 2009, dated 2015)
